Data reported in ChEMBL document CHEMBL3044556, “Managing weeds with drip-applied herbicides in tomato” (2008).

Assays:
Type in all cases: functional
Eleusine indica [1] = assay: Pre-emergence herbicidal activity against Eleusine indica in tomato field assessed as number of weeds at 2.28 kg/ha applied through drip lines/backpack-spray on week 3 to 4 before transplanting measured 12 weeks after treatment (reference value: 9 plants/m2)
Digitaria [2] = assay: Pre-emergence herbicidal activity against Digitaria spp. in tomato field assessed as number of weeds at 2.28 kg/ha applied through drip lines/backpack-spray on week 3 to 4 before transplanting measured 12 weeks after treatment (reference value: 9 plants/m2)
Trianthema [3] = assay: Pre-emergence herbicidal activity against Trianthema spp. in tomato field assessed as total number of fruits at 2.28 kg/ha applied through drip lines/backpack-spray on week 3 to 4 before transplanting (reference value: 49.5 x 10 '3 ha); settings: pooled result: one value given for 8 cell lines, strains, targets or settings
Eleusine indica [4] = assay: Pre-emergence herbicidal activity against Eleusine indica in tomato field assessed as number of extra-large fruits at 2.28 kg/ha applied through drip lines/backpack-spray on week 3 to 4 before transplanting (reference value: 21.3 x 10 '3 ha); settings: pooled result: one value given for 8 cell lines, strains, targets or settings
Echinochloa colona [5] = assay: Pre-emergence herbicidal activity against Echinochloa colona in tomato field assessed as number of weeds at 2.28 kg/ha applied through drip lines/backpack-spray on week 3 to 4 before transplanting measured 12 weeks after treatment (reference value: 9 plants/m2)
Amaranthus dubius [6] = assay: Pre-emergence herbicidal activity against Amaranthus dubius in tomato field assessed as number of weeds at 2.28 kg/ha applied through drip lines/backpack-spray on week 3 to 4 before transplanting measured 12 weeks after treatment (reference value: 9 plants/m2)
Boerhavia erecta [7] = assay: Pre-emergence herbicidal activity against Boerhavia erecta in tomato field assessed as number of weeds at 2.28 kg/ha applied through drip lines/backpack-spray on week 3 to 4 before transplanting measured 12 weeks after treatment (reference value: 9 plants/m2)
Corynandra viscosa [8] = assay: Pre-emergence herbicidal activity against Cleome viscosa in tomato field assessed as number of weeds at 2.28 kg/ha applied through drip lines/backpack-spray on week 3 to 4 before transplanting measured 12 weeks after treatment (reference value: 9 plants/m2)
Portulaca oleracea [9] = assay: Pre-emergence herbicidal activity against Portulaca oleracea in tomato field assessed as number of weeds at 2.28 kg/ha applied through drip lines/backpack-spray on week 3 to 4 before transplanting measured 12 weeks after treatment (reference value: 9 plants/m2)
Trianthema [10] = assay: Pre-emergence herbicidal activity against Trianthema spp. in tomato field assessed as number of weeds at 2.28 kg/ha applied through drip lines/backpack-spray on week 3 to 4 before transplanting measured 12 weeks after treatment (reference value: 9 plants/m2)
Cyperus [11] = assay: Pre-emergence herbicidal activity against Cyperus in tomato field assessed as number of weeds at 2.28 kg/ha applied through drip lines/backpack-spray on week 3 to 4 before transplanting measured 12 weeks after treatment (reference value: 5 plants/m2)
Poaceae [12] = assay: Pre-emergence herbicidal activity against Poaceae (grass family) in tomato field assessed as number of weeds at 2.28 kg/ha applied through drip lines/backpack-spray on week 3 to 4 before transplanting measured 12 weeks after treatment (reference value: 8 plants/m2)
Eleusine indica [13] = assay: Pre-emergence herbicidal activity against Eleusine indica in tomato field assessed as number of weeds at 2.28 kg/ha applied through drip lines/backpack-spray on week 3 to 4 before transplanting measured 7 weeks after treatment (reference value: 9 plants/m2)
Digitaria [14] = assay: Pre-emergence herbicidal activity against Digitaria spp. in tomato field assessed as number of weeds at 2.28 kg/ha applied through drip lines/backpack-spray on week 3 to 4 before transplanting measured 7 weeks after treatment (reference value: 9 plants/m2)
Echinochloa colona [15] = assay: Pre-emergence herbicidal activity against Echinochloa colona in tomato field assessed as number of weeds at 2.28 kg/ha applied through drip lines/backpack-spray on week 3 to 4 before transplanting measured 7 weeks after treatment (reference value: 9 plants/m2)
Amaranthus dubius [16] = assay: Pre-emergence herbicidal activity against Amaranthus dubius in tomato field assessed as number of weeds at 2.28 kg/ha applied through drip lines/backpack-spray on week 3 to 4 before transplanting measured 7 weeks after treatment (reference value: 9 plants/m2)
Boerhavia erecta [17] = assay: Pre-emergence herbicidal activity against Boerhavia erecta in tomato field assessed as number of weeds at 2.28 kg/ha applied through drip lines/backpack-spray on week 3 to 4 before transplanting measured 7 weeks after treatment (reference value: 9 plants/m2)
Corynandra viscosa [18] = assay: Pre-emergence herbicidal activity against Cleome viscosa in tomato field assessed as number of weeds at 2.28 kg/ha applied through drip lines/backpack-spray on week 3 to 4 before transplanting measured 7 weeks after treatment (reference value: 9 plants/m2)
Portulaca oleracea [19] = assay: Pre-emergence herbicidal activity against Portulaca oleracea in tomato field assessed as number of weeds at 2.28 kg/ha applied through drip lines/backpack-spray on week 3 to 4 before transplanting measured 7 weeks after treatment (reference value: 9 plants/m2)
Trianthema [20] = assay: Pre-emergence herbicidal activity against Trianthema spp. in tomato field assessed as number of weeds at 2.28 kg/ha applied through drip lines/backpack-spray on week 3 to 4 before transplanting measured 7 weeks after treatment (reference value: 9 plants/m2)
Cyperus [21] = assay: Pre-emergence herbicidal activity against Cyperus in tomato field assessed as number of weeds at 2.28 kg/ha applied through drip lines/backpack-spray on week 3 to 4 before transplanting measured 7 weeks after treatment (reference value: 3 plants/m2)
Poaceae [22] = assay: Pre-emergence herbicidal activity against Poaceae (grass family) in tomato field assessed as number of weeds at 2.28 kg/ha applied through drip lines/backpack-spray on week 3 to 4 before transplanting measured 7 weeks after treatment (reference value: 6 plants/m2)
Amaranthus dubius [23] = assay: Pre-emergence herbicidal activity against Amaranthus dubius in tomato field assessed as extra-large fruit weight at 2.28 kg/ha applied through drip lines/backpack-spray on week 3 to 4 before transplanting (reference value: 7.3 t/ha); settings: pooled result: one value given for 8 cell lines, strains, targets or settings
Eleusine indica [24] = assay: Pre-emergence herbicidal activity against Eleusine indica in tomato field assessed as total fruit weight at 2.28 kg/ha applied through drip lines/backpack-spray on week 3 to 4 before transplanting (reference value: 13.7 t/ha); settings: pooled result: one value given for 8 cell lines, strains, targets or settings

Question: Which Activity (Eleusine indica [1]) does the source give for `CCN(CC)C(=O)C(C)Oc1cccc2ccccc12` (centres undefined) [NAPROPAMIDE] here?
Answer: 7 /m2

Question: And the Activity (Digitaria [2])?
Answer: 7 /m2

Question: What about the Activity (Trianthema [3]) of the same molecule?
Answer: 58.3 10^3 fruits/ha

Question: What about the fruit count (Eleusine indica [4]) of the same molecule?
Answer: 26.3 10^3 fruits/ha

Question: And the Activity (Echinochloa colona [5])?
Answer: 7 /m2

Question: And the Activity (Amaranthus dubius [6])?
Answer: 7 /m2

Question: What about the Activity (Boerhavia erecta [7]) of the same molecule?
Answer: 7 /m2

Question: And the Activity (Corynandra viscosa [8])?
Answer: 7 /m2

Question: What about the Activity (Portulaca oleracea [9]) of the same molecule?
Answer: 7 /m2

Question: And the Activity (Trianthema [10])?
Answer: 7 /m2

Question: What about the Activity (Cyperus [11]) of the same molecule?
Answer: 9 /m2

Question: And the Activity (Poaceae [12])?
Answer: 6 /m2

Question: And the Activity (Eleusine indica [13])?
Answer: 4 /m2

Question: And the Activity (Digitaria [14])?
Answer: 4 /m2

Question: What about the Activity (Echinochloa colona [15]) of the same molecule?
Answer: 4 /m2

Question: And the Activity (Amaranthus dubius [16])?
Answer: 4 /m2

Question: And the Activity (Boerhavia erecta [17])?
Answer: 4 /m2

Question: And the Activity (Corynandra viscosa [18])?
Answer: 4 /m2

Question: What about the Activity (Portulaca oleracea [19]) of the same molecule?
Answer: 4 /m2

Question: And the Activity (Trianthema [20])?
Answer: 4 /m2

Question: What about the Activity (Cyperus [21]) of the same molecule?
Answer: 6 /m2

Question: And the Activity (Poaceae [22])?
Answer: 1 /m2

Question: What about the Activity (Amaranthus dubius [23]) of the same molecule?
Answer: 9.1 tons/ha

Question: And the Activity (Eleusine indica [24])?
Answer: 16.4 tons/ha
